In one series the target is T1, rat NHE-3 (Rattus norvegicus, UniProt P26433).
T1 construct: expressed in transfected cells; host or cells: Opossum kidney (OK) cells (ATCC), electroporated
The experiment in a line: Cell-based assay of NHE-3 activity (Pharmacological Test Example 1). The settings on record: OK cells expressing rat NHE-3; 0-30 uM test compound, 5 uM EIPA. The method, boiled down: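 Na+-dependent H+ exchange tracked with the pH-sensitive dye BCECF in opossum kidney cells transiently expressing rat NHE-3. Intracellular acidification by NH4Cl prepulse, then 10 min in ammonium- and Na+-free HEPES, pH 7.4, room temperature. Initial rates averaged over 3-6 replicates give pIC50.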

Series [1] in a line: Parallel artificial membrane permeability assay (PAMPA). The following applies: pH 7.4. Background: The PAMPA barrier holds no transporters, so it reflects passive diffusion.
Series [2] in a line: Determination of compound Cmax and AUC. In kind it is in vivo. The settings on record: rat; Sprague-Dawley rats, oral gavage, serum 0.5-4 h; actual oral dose (mg/kg) given. The method, boiled down: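 Sprague-Dawley rats dosed orally by gavage at 2.5 mg/kg; serum sampled at 0.5, 1, 2 and 4 h. Acetonitrile protein precipitation, then LC/MS/MS quantitation against a standard curve.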

Broadly, the Papp A→B is the apparent permeability from the apical to the basolateral side of a cell layer. Higher therefore signals ready permeation. A word on the AUC: it is the area under the concentration-time curve, a measure of exposure. Low values mean less exposure, high ones more exposure. One may read the Cmax as the maximum level reached in the sampled fluid or tissue.

Some results are limits rather than exact numbers.

T1 sequence (P26433 29-831): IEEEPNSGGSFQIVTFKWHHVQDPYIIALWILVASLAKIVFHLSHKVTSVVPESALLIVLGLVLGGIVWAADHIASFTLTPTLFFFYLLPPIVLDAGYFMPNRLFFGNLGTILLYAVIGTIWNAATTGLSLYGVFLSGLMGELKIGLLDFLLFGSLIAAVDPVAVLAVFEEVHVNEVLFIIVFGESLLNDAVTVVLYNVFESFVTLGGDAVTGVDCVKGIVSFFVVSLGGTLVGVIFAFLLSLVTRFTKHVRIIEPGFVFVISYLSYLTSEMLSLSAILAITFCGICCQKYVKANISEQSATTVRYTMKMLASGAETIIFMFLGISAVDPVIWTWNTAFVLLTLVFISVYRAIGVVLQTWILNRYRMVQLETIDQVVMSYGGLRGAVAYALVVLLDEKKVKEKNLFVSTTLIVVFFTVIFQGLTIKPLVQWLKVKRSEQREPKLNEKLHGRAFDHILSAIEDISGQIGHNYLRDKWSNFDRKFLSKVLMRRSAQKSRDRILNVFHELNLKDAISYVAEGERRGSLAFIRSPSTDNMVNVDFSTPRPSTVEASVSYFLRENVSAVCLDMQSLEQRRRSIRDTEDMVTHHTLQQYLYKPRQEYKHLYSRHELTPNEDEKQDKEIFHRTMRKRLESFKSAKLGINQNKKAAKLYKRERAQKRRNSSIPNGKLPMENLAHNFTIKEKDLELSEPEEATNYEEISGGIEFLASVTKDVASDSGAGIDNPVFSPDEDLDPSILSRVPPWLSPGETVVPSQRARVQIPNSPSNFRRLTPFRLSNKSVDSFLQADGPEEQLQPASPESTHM

For the molecule `N=C(N)N1CCN(c2cccc(-c3nc(N=C(N)N)nc4ccc(Cl)cc34)c2)CC1` [Example 60, 4-(3-(6-chloro-2-(diaminomethyleneamino)quinazolin-4-yl)phenyl)piperazine-1-carboximidamide], the “rat NHE-3 Average pIC50” value at rat NHE-3 was in the range of 6 to 7. This molecule registered a Papp A→B at 3 h, 20 uM in series [1] of 0.99 ×10⁻⁶ cm/s.
On the same counts, the results for `C/C(=C\c1cc(F)c(Oc2ccc(S(=O)(=O)NCCOCCOCCOCCNC(=O)CCCCCCC(=O)NCCOCCOCCOCCNS(=O)(=O)c3ccc(Oc4c(F)cc(/C=C(\C)C(=O)N=C(N)N)cc4F)cc3)cc2)c(F)c1)C(=O)N=C(N)N` [Example 47, N,N′-(13,20 dioxo-3,6,9, 24, 27, 30-hexaoxa-12, 21-diazadotriacontane-1,32-diyl)bis[(E)-N-(diaminomethylene)-3-(3,5-difluoro-4-(4-sulfamoylphenoxy)phenyl)-2-methylacrylamide]] are more than 7 and less than 0.01 ×10⁻⁶ cm/s.
With `NC(N)=Nc1nc(-c2ccc(N3CCN(CCO)CC3)cc2)c2cc(Cl)ccc2n1` [Example 69, 2-(6-chloro-4-(4-(4-(2-hydroxyethyl)piperazin-1-yl)phenyl)quinazolin-2-yl)guanidine], the “rat NHE-3 Average pIC50” value at rat NHE-3 fell in the range of 6 to 7. Moreover, the Papp A→B at 3 h, 20 uM in series [1] amounted to 0.3 ×10⁻⁶ cm/s.
The like results for `NC(N)=Nc1nc(-c2cccc(N3CCN(CCO)CC3)c2)c2cc(Cl)ccc2n1` [Example 68, 2-(6-chloro-4-(3-(4-(2-hydroxyethyl)piperazin-1-yl)phenyl)quinazolin-2-yl)guanidine] were, in that order, 6 to 7 and 0.35 ×10⁻⁶ cm/s.
The like results for `CN1Cc2c(Cl)cc(Cl)cc2C(c2ccc(NS(=O)(=O)NCCP(=O)([O-])[O-])cc2)C1.[Na+].[Na+]` (stereo not drawn) [Example 30, 2-(N-(4-(6,8-dichloro-2-methyl-1,2,3,4-tetrahydroisoquinolin-4-yl)phenyl)sulfamoylamino)ethylphosphonic acid] were, in that order, 5 to 6 and 0.56 ×10⁻⁶ cm/s.
`CN1Cc2c(Cl)cc(Cl)cc2C(c2cccc(S(=O)(=O)NCCP(=O)(O)O)c2)C1` (stereo not drawn) [Example 1, 2-(3-(6,8-dichloro-2-methyl-1,2,3,4-tetrahydroisoquinolin-4-yl)phenylsulfonamido)ethylphosphonic acid] yielded a Papp A→B at 3 h, 20 uM in series [1] of 0.53 ×10⁻⁶ cm/s. Besides, in series [2], the AUC was determined as 53 ng·h/mL and the Cmax worked out at 21 ng/mL.
On to `C/C(=C\c1cc(F)c(Oc2ccc(S(=O)(=O)NCc3ccc(CP(=O)(O)O)cc3)cc2)c(F)c1)C(=O)N=C(N)N` [Example 52, (E)-4-((4-(4-(3-(diaminomethyleneamino)-2-methyl-3-oxoprop-1-enyl)-2,6-difluorophenoxy)phenylsulfonamido)methyl)benzylphosphonic acid], for which, at rat NHE-3, the “rat NHE-3 Average pIC50” value was 5 to 6. This molecule also came in with an apparent permeability from apical to basolateral (Papp A→B) at 3 h, 20 uM in series [1] of 1.61 ×10⁻⁶ cm/s.
On the same counts, the results for `CN1Cc2c(Cl)cc(Cl)cc2C(c2cccc(NS(=O)(=O)NCCP(=O)(O)O)c2)C1` (stereo not drawn) [Example 31, 2-(N-(3-(6,8-dichloro-2-methyl-1,2,3,4-tetrahydroisoquinolin-4-yl)phenyl)sulfamoylamino)ethylphosphonic acid] are 5 to 6 and 0.61 ×10⁻⁶ cm/s.
Turning to `C/C(=C\c1cc(F)c(Oc2ccc(S(=O)(=O)NCCCP(=O)(O)O)cc2)c(F)c1)C(=O)N=C(N)N` [Example 54, (E)-3-(4-(4-(3-(diaminomethyleneamino)-2-methyl-3-oxoprop-1-enyl)-2,6-difluorophenoxy)phenylsulfonamido)propylphosphonic acid], the “rat NHE-3 Average pIC50” value on rat NHE-3 lay within 5 to 6. The same molecule gave a Papp A→B at 3 h, 20 uM in series [1] of 1.3 ×10⁻⁶ cm/s.
On the same counts, the results for `NC(N)=Nc1nc(-c2cccc(N3CCN(C(=O)[C@H](O)[C@@H](O)[C@H](O)[C@H](O)CO)CC3)c2)c2cc(Cl)ccc2n1` [Example 63, 2-(6-chloro-4-(3-(4-((2R,3S,4R,5R)-2,3,4,5,6-pentahydroxyhexanoyl)piperazin-1-yl)phenyl)quinazolin-2-yl)guanidine] are 5 to 6 and 0.43 ×10⁻⁶ cm/s.

(Values after patent US20190374533A1, “COMPOUNDS AND METHODS FOR INHIBITING NHE-MEDIATED ANTIPORT IN THE TREATMENT OF DISORDERS ASSOCIATED WITH FLUID RETENTION OR SALT OVERLOAD AND GASTROINTESTINAL TRACT DISORDERS” (Ardelyx, Inc., priority 2008, published 2019).)
